ChEMBL document CHEMBL3885861, “Open TG-GATES”

Organism: Rattus norvegicus
Test: Open TG-GATES - Regimen: Single
Format: toxicity, organism-based, Sprague-Dawley
Design: regimen Single, gender Male, age 6 weeks
Settings: in vivo, po, 100 mg/kg, route gavage, dose level Low; for APTT / Bas / Eos / Fbg / Hb / Ht / Lym / MCH / MCHC / MCV / Mono / Neu / PT / Plat / RBC / Ret / WBC: tissue Blood; for KIDNEY_L / KIDNEY_R / KIDNEY_TOTAL: tissue Kidney; for LIVER: tissue Liver; for A/G / ALP / ALT / AST / BUN / CRE / Ca / Cl / DBIL / GLC / IP / K / LDH / Na / PL / RALB / TBIL / TC / TG / TP / gamma-GTP: tissue Plasma

CCOC(=O)CCC(=O)O[C@H]1[C@H](O[C@@H]2[C@@H](C)[C@H](O[C@H]3C[C@@](C)(OC)[C@@H](O)[C@H](C)O3)[C@@H](C)C(=O)O[C@H](CC)[C@@](C)(O)[C@H](O)[C@@H](C)C(=O)[C@H](C)C[C@@]2(C)O)O[C@H](C)C[C@@H]1N(C)C [ERYTHROMYCIN ETHYLSUCCINATE]
TERMINAL_BW (3 h): 214.5 g | APTT (3 h): 22.9 s | Bas (3 h): 0% | Eos (3 h): 0.8% | Fbg (3 h): 311.4 mg/dL | Hb (3 h): 13.2 g/dL | Ht (3 h): 39.7% | Lym (3 h): 77.4% | MCH (3 h): 21.4 pg | MCHC (3 h): 33.2% | MCV (3 h): 64.4 fL | Mono (3 h): 2.6% | Neu (3 h): 18.6% | PT (3 h): 16.2 s | Plat (3 h): 111.6 x10_4/uL | RBC (3 h): 617.6 x10_4/ul | Ret (3 h): 8.2% | WBC (3 h): 78.3 x10_2/uL | KIDNEY_L (3 h): 0.9 g | KIDNEY_R (3 h): 1 g | KIDNEY_TOTAL (3 h): 1.9 g | LIVER (3 h): 9.9 g | A/G (3 h): 1.2 | ALP (3 h): 1930.6 IU/L | ALT (3 h): 47.6 IU/L | AST (3 h): 78 IU/L | BUN (3 h): 12.8 mg/dL | CRE (3 h): 0.1 mg/dL | Ca (3 h): 10.5 mg/dL | Cl (3 h): 102.8 meq/L | DBIL (3 h): 0.006 mg/dL | GLC (3 h): 189.2 mg/dL | IP (3 h): 9.1 mg/dL | K (3 h): 3.8 meq/L | LDH (3 h): 147.2 IU/L | Na (3 h): 139.2 meq/L | PL (3 h): 142.6 mg/dL | RALB (3 h): 2.9 g/dL | TBIL (3 h): 0.02 mg/dL | TC (3 h): 73 mg/dL | TG (3 h): 70.2 mg/dL | TP (3 h): 5.5 g/dL | gamma-GTP (3 h): 1 IU/L | TERMINAL_BW (6 h): 213.8 g | APTT (6 h): 22.8 s | Bas (6 h): 0% | Eos (6 h): 0.8% | Fbg (6 h): 308 mg/dL | Hb (6 h): 13.2 g/dL | Ht (6 h): 39.8% | Lym (6 h): 76.6% | MCH (6 h): 20.9 pg | MCHC (6 h): 33.1% | MCV (6 h): 63.4 fL | Mono (6 h): 2.6% | Neu (6 h): 18.8% | PT (6 h): 16 s | Plat (6 h): 118.8 x10_4/uL | RBC (6 h): 628 x10_4/ul | Ret (6 h): 7.8% | WBC (6 h): 108.5 x10_2/uL | KIDNEY_L (6 h): 1 g | KIDNEY_R (6 h): 1 g | KIDNEY_TOTAL (6 h): 2 g | LIVER (6 h): 9.2 g | A/G (6 h): 1.1 | ALP (6 h): 1420.4 IU/L | ALT (6 h): 40.2 IU/L | AST (6 h): 72 IU/L | BUN (6 h): 12 mg/dL | CRE (6 h): 0.2 mg/dL | Ca (6 h): 10.5 mg/dL | Cl (6 h): 104 meq/L | DBIL (6 h): 0 mg/dL | GLC (6 h): 187.6 mg/dL | IP (6 h): 9.5 mg/dL | K (6 h): 4.2 meq/L | LDH (6 h): 182 IU/L | Na (6 h): 138 meq/L | PL (6 h): 132.2 mg/dL | RALB (6 h): 2.8 g/dL | TBIL (6 h): 0.02 mg/dL | TC (6 h): 69.8 mg/dL | TG (6 h): 63.4 mg/dL | TP (6 h): 5.3 g/dL | gamma-GTP (6 h): 1.2 IU/L | TERMINAL_BW (9 h): 216.4 g | APTT (9 h): 23.3 s | Bas (9 h): 0% | Eos (9 h): 1% | Fbg (9 h): 315 mg/dL | Hb (9 h): 13.3 g/dL | Ht (9 h): 40.4% | Lym (9 h): 80.4% | MCH (9 h): 21.5 pg | MCHC (9 h): 33% | MCV (9 h): 65 fL | Mono (9 h): 2% | Neu (9 h): 15.8% | PT (9 h): 15.6 s | Plat (9 h): 121.2 x10_4/uL | RBC (9 h): 622 x10_4/ul | Ret (9 h): 8% | WBC (9 h): 73.2 x10_2/uL | KIDNEY_L (9 h): 1 g | KIDNEY_R (9 h): 1.1 g | KIDNEY_TOTAL (9 h): 2.1 g | LIVER (9 h): 9.2 g | A/G (9 h): 1.2 | ALP (9 h): 1398.8 IU/L | ALT (9 h): 32.4 IU/L | AST (9 h): 64 IU/L | BUN (9 h): 12.4 mg/dL | CRE (9 h): 0.1 mg/dL | Ca (9 h): 10.6 mg/dL | Cl (9 h): 105.4 meq/L | DBIL (9 h): 0 mg/dL | GLC (9 h): 188.8 mg/dL | IP (9 h): 9.5 mg/dL | K (9 h): 4.2 meq/L | LDH (9 h): 145.6 IU/L | Na (9 h): 138.6 meq/L | PL (9 h): 136 mg/dL | RALB (9 h): 3 g/dL | TBIL (9 h): 0.012 mg/dL | TC (9 h): 78.2 mg/dL | TG (9 h): 87.4 mg/dL | TP (9 h): 5.5 g/dL | gamma-GTP (9 h): 1.4 IU/L | TERMINAL_BW (24 h): 222.7 g | APTT (24 h): 21.4 s | Bas (24 h): 0% | Eos (24 h): 0.8% | Fbg (24 h): 326.2 mg/dL | Hb (24 h): 13.8 g/dL | Ht (24 h): 41.6% | Lym (24 h): 86.4% | MCH (24 h): 20.6 pg | MCHC (24 h): 33.2% | MCV (24 h): 62.2 fL | Mono (24 h): 3% | Neu (24 h): 8.2% | PT (24 h): 16 s | Plat (24 h): 122.9 x10_4/uL | RBC (24 h): 670 x10_4/ul | Ret (24 h): 6.7% | WBC (24 h): 102.3 x10_2/uL | KIDNEY_L (24 h): 0.9 g | KIDNEY_R (24 h): 1 g | KIDNEY_TOTAL (24 h): 1.9 g | LIVER (24 h): 9.5 g | A/G (24 h): 1.3 | ALP (24 h): 1407.8 IU/L | ALT (24 h): 43.4 IU/L | AST (24 h): 70.4 IU/L | BUN (24 h): 14 mg/dL | CRE (24 h): 0.1 mg/dL | Ca (24 h): 10.6 mg/dL | Cl (24 h): 106.6 meq/L | DBIL (24 h): 0.002 mg/dL | GLC (24 h): 200.6 mg/dL | IP (24 h): 7.7 mg/dL | K (24 h): 4.1 meq/L | LDH (24 h): 183.2 IU/L | Na (24 h): 142.4 meq/L | PL (24 h): 140.4 mg/dL | RALB (24 h): 3.1 g/dL | TBIL (24 h): 0.03 mg/dL | TC (24 h): 83 mg/dL | TG (24 h): 71.6 mg/dL | TP (24 h): 5.5 g/dL | gamma-GTP (24 h): 1.4 IU/L
